Common to all, as to assay type: binding
Assay [1] deals with T1, topo70-DNA covalent complex (Form 7 apo-crystals) (Homo sapiens, UniProt P11387).
T1 construct: human topoisomerase I construct of residues Lys175 to Phe765; made in house; host or cells: baculovirus-insect cell (SF9)
T1 sequence (P11387 175-765): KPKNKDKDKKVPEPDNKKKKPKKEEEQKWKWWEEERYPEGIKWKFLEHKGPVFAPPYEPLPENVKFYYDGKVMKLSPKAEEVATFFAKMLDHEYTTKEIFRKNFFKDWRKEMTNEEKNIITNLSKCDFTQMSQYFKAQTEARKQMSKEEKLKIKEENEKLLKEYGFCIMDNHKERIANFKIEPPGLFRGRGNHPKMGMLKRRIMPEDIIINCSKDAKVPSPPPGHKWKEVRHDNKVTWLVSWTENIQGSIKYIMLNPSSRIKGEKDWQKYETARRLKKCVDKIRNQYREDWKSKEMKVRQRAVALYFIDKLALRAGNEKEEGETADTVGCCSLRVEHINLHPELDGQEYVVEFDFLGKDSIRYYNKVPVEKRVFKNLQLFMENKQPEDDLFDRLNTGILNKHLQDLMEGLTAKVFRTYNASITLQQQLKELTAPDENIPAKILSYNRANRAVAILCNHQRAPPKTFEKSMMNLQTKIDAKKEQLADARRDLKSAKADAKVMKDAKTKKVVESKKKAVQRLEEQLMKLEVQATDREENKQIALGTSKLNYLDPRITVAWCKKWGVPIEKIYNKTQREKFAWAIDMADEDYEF
Kind of assay: Crystal cracking of Form 7 crystals (crystal-cracking assay). The note with it: 16° C., approximately 3 hours.
Excerpt: Cracking of the crystal after exposure to the potential ligand(s) indicates binding between at least one potential ligand and the macromolecule. This assay is referred to herein as the “crystal-cracking” assay.
The crystal cracking assay of the invention involves the development of optimized crystal growth conditions that depend on the absence of the ligand to produce a supply of macromolecule crystals, referred to herein as apo-crystals, then soaking the apo-crystals in a solution containing one or more potential ligands. If a ligand actually binds to the macromolecule, it initiates a conformational change in the crystal resulting in an observable cracking of the crystal.
Several rounds of similar optimization screening experiments eventually led to the identification of a definitive crystallization condition that produces crystals of the topo70-DNA covalent complex only in the absence of Topotecan (designate Form 7). The Form 7 crystals were grown at 16° C. under optimized conditions by vapor diffusion equilibration against a 500 microliter reservoir solution of 10% PEG 8000, 100 mM Tris-HCl pH 8.0, 100 mM Na/K phosphate pH 6.2, 100 mM KCl, and 10 mM DTT. The sitting drop crystallizations were prepared in drop chambers by mixing 2 microliters of reservoir solution with 2 microliters of 0.1 mM duplex DNA substrate in 6 mM NaCl, and 2 microliters 4 mg/ml topo70 in 10 mM Tris-HCl pH 7.5, 1 mM EDTA, and 1 mM DTT.
In order to test the effects of Topotecan and other topo I poisons on the integrity of Form 7 crystals, crystallization drops containing Form 7 crystals were subjected to the following treatments:
1. Injection of 3 microliters of a buffer solution containing 100 mM MES pH 6.3, and 100 mM Na/K phosphate pH 6.2 (buffer only control).
2. Injection of 3 microliters of 100 mM MES pH 6.3, 100 mM Na/K phosphate pH 6.2, and 0.32 mM Topotecan.
3. Injection of 3 microliters of 100 mM MES pH 6.3, 100 mM Na/K phosphate pH 6.2, 13% v/v DMSO, and 0.64 mM camptothecin.
4. […]

The target in assay [2] is T2, topo70-DNA covalent complex (Homo sapiens, UniProt P11387).
T2 construct: human topoisomerase I construct of residues Lys175 to Phe765; made in house; host or cells: baculovirus-insect cell (SF9)
T2 sequence (P11387 175-765): T1 sequence (P11387 175-765)
Kind of assay: Crystal growth assay (crystal growth dependence on ligand), T80P CBS-cross solutions. The note with it: 16° C.
Description: The chemical components of each crystallization formulation were classified as being either a crystallant, buffer, or salt. The various crystallants were as follows:
CBS-cross crystallization screening formulations were prepared with all possible combinations of crystallants, buffers and salts.
In one set of crystallization experiments, the T80P crystallization screen was used in a Combinatorial Clover Plate developed by Emerald BioStructures, Inc. [Kim et al.], which allows for the rapid set up of multiple crystallizations in a common vapor diffusive environment.
The 24 reservoir chambers of the Combinatorial Clover Plate were filled with 1.0 milliliter of each of the 24 different T80P formulations. Once the T80P formulations had been individually placed into the reservoir chambers, 2 microliters of each individual crystallization screening formulation was placed into each of the four the sitting drop chambers that are connected to the common reservoir by dedicated vapor diffusion channels. This was followed by the addition of 1 microliter of duplex suicide oligonucleotide substrate (0.05 mM duplex, 6 mM NaCl) into the drop chamber.
The duplex was mixed with the crystallization screening solution by repeated pipetting. This was followed by the addition 0.1 microliter of 10 mM Topotecan to the upper two drop chambers of each crystallization clover. […]

Assay [3] addresses T2, topo70-DNA covalent complex. The experiment in a line: Crystallization trials with VII-2 solutions in the absence or presence of Topotecan. As to conditions: condition VII-2 #3; 1 microliter of 1 mM ligand in water vs water only; 16° C., several days.
Description: The four different VII-2 formulations each contained one or more of the chemical components found in the lead crystallization conditions, plus additional components such as 10 mM DTT. The four VII-2 crystallization conditions were as follows:
A Cryschem tray was used to screen each of the four VII-2 crystallization solutions for their ability to promote crystallization of topo70-DNA complexes in the absence or presence of Topotecan, an analogue of camptothecin. The crystallization experiments were set up by first placing 500 microliters of the VII-2 screening solutions in duplicate individual reservoir chambers. Next, 3 microliters of each reservoir solution was placed into the drop chambers. The drop chamber solutions were then mixed by pipetting with 1.5 microliters of 0.05 mM suicide duplex oligonuceotide substrate in 6 mM NaCl. One microliter of 1 mM Topotecan in pure water or 1 microliter of pure water only was added to each of the duplicate drop chambers. Then 2 microliters of topo70 at 3 mg/ml in 10 mM Tris-HCl pH 7.5, 1 mM EDTA, and 1 mM DTT was added to each of the drop chambers. The crystallization tray was sealed with crystal clear sealing tape (marketed by Manco, Inc. Avon, Ohio), and incubated at 16° C.
Where [4] appears, read: injection of 3 microliters of 0.64 mM ligand in 100 mM MES pH 6.3, 100 mM Na/K phosphate pH 6.2, 13% v/v DMSO.

Regarding `CC[C@@]1(O)C(=O)OCc2c1cc1n(c2=O)Cc2cc3cc4c(cc3nc2-1)OCO4` [10,11 MDO-camptothecin, 10,11 MDO camptothecin], in assay [1] (setting [4]), the “effect on integrity of Form 7 crystals (crystal cracking)” value (“effect on integrity of Form 7 crystals” below) was “had dissolved leaving only a trace pile of crystal bits”.
As for `O=C(O)CCCn1c2c(c3ccccc3c1=O)C(=O)c1ccccc1-2` [MJ-II-38], the “ligand-dependent crystal growth of ternary complex crystals” value in assay [2] (T80P #10, 0.5 microliter of 1 mM AG260 in 100% DMSO or 0.3 microliter of 1 mM MJ-II-38 in 90% v/v DMSO, several days) is recorded as “plate like crystals grew”.
`CC[C@@]1(O)C(=O)OCc2c1cc1n(c2=O)Cc2cc3c(CN(C)C)c(O)ccc3nc2-1` [Topotecan]: the “effect on integrity of Form 7 crystals” value in assay [1] (injection of 3 microliters of 0.32 mM ligand in 100 mM MES pH 6.3, 100 mM Na/K phosphate pH 6.2) is recorded as “showed visible signs of micro cracks throughout the crystals”. Besides, the “growth of putative topo70-DNA covalent complex crystals (Form 7) with ligand present vs absent” value in assay [3] is reported as “grow in condition VII-2 #3 only when Topotecan was absent”. In addition, in assay [2] (T80P #9 and T80P #10, 0.1 microliter of 10 mM ligand, day 28, no crystals when ligand absent), the “ligand-dependent crystal growth (Form 9 crystals)” value was “produced crystals of distinct block morphology when Topotecan was present”.
In the case of `CC[C@@]1(O)C(=O)OCc2c1cc1n(c2=O)Cc2cc3ccccc3nc2-1` [camptothecin], the “effect on integrity of Form 7 crystals” value in assay [1] (setting [4]) is listed as “showed visible signs of micro cracks throughout the crystals”.

The record behind these values is US6950757B2, “Screening methods for identifying ligands” (Emerald BioStructures, Inc., priority 2001, dated 2005).
